Values quoted from earlier work in patent US6086919A, “Pharmaceutical composition containing the ace inhibitor ramipril and a dihydropyridine compound” (priority 1994, dated 2000).

Key:
[1] = system: hypertensive patients; patients with clinical signs of congestive heart failure
vasodilatory effect = details: in words

In the case of `CCOC(=O)C1=C(C)NC(C)=C(C(=O)OC)C1c1cccc(Cl)c1Cl` (centres unmarked) [felodipine], the Light stability (when exposed to light) is listed as “decomposed when exposed to light”.
In the case of `CCOC(=O)[C@H](CCc1ccccc1)N[C@@H](C)C(=O)N1[C@H](C(=O)O)C[C@@H]2CCC[C@@H]21` [ramipril], the Mortality ([1]; clinical signs of congestive heart failure after acute myocardial infarction) is given as “reduce mortality”, the “Reduction of blood pressure and peripheral arterial resistance” value ([1]; hypertensive patients) is given as “reduction in peripheral arterial resistance and thus a reduction of the blood pressure without a compensatory rise in heart rate” and the “Sensitivity of the substance” value (stability) is given as “sensitive to high temperature, moisture or compression”.
For `CCOC(=O)C1=C(C)NC(C)=C(C(=O)OC)[C@@H]1c1cccc(Cl)c1Cl` [S form], the “Vasodilatory effect compared with the R form” value (vasodilatory effect) is listed as “stronger than the vasodilatory effect of the R form”.
